From patent US5565483A, “3-substituted oxindole derivatives as potassium channel modulators” (Bristol-Myers Squibb Company, priority 1995, dated 1996)

The compounds below were run on cloned mammalian (mSIo or hSIo) BK channels (assay: Increase of cloned BK-mediated outward current in Xenopus oocytes, two-electrode voltage clamp). Settings: at 20 μM; at least 5 oocytes; mSIo or hSIo expressed in Xenopus oocytes.
Type: cell-based
Method: The ability of compounds described in the present invention to open BK channels and increase whole-cell outward (K^+) BK-mediated currents was assessed under voltage-clamp conditions by determining their ability to increase cloned mammalian (mSIo or hSIo) BK--mediated outward current heterologously expressed in Xenopus oocytes [Butler, A., et al., Science, 261:221-224 (1993); and Dworetzky, S. I., etal., Mol. Brain Res., 27: 189-193 (1994)]. The two BK constructs employed represent nearly structurally identical homologous proteins, and have proven to be pharmacologically identical in our tests. To isolate BK current from native (background, non-BK) current, the specific and potent BK channel-blocking toxin iberiotoxin (IBTX) [Galvez, A., et al., J. Biol. Chem. 265:11083-11090 (1990)] was employed at a supramaximal concentration (50 nM). The relative contribution of BK channels current to total outward current was determined by subtraction of the current remaining in the presence of IBTX (non-BK current) from the current profiles obtained in all other experimental conditions (control, drug, and wash). […] All compounds were tested in at least 5 oocytes and are reported at the single concentration of 20 uM; the effect of the selected compounds of Formula I on BK current was expressed as the percent of control IBTX-sensitive current and is listed in Table I. Recordings were accomplished using standard two-electrode voltage clamp techniques [Stuhmer, W., et al., Methods in Enzymology, Vol. 207:319-339 (1992)]; voltage-clamp protocols consisted of 500-750 ms duration step depolarizations from a holding potential of -60 mV to +140 mV in 20 mV steps. The experimental media (modified Barth's solution) consisted of (in mM): NaCl (88), NaHCO3 (2.4), KCl (1.0), HEPES (10), MgSO4 (0.82), Ca(NO3)2 (0.33), CaCl2 (0.41); pH 7.5.

Row | Compound | BK Current, percent of control IBTX-sensitive current
1 | O=C1Nc2cc(I)ccc2C1c1cc(Cl)ccc1O (racemic) [Example 33, (±)-3-(5-Chloro-2-hydroxyphenyl)-1,3-dihydro-6-iodo-2H-indol-2-one] | +++ (+++ = >150%)
2 | O=C1Nc2cc(Cl)cc(Cl)c2C1c1cc(Cl)ccc1O (racemic) [Example 31, (±)-3-(5-Chloro-2-hydroxyphenyl)-4,6-dichloro-1,3-dihydro-2H-indol-2-one] | + (+ = 100-125%)
3 | O=C1Nc2cc(-c3ccccc3)ccc2C1c1cc(Cl)ccc1O (racemic) [Example 16, (±)-3-(5-Chloro-2-hydroxyphenyl)-1,3-dihydro-6-phenyl-2H-indol-2-one] | +++ (+++ = >150%)
4 | COc1ccc(Cl)cc1C1(F)C(=O)Nc2ccc(F)cc21 (racemic) [Example 25, (±)-3-(5-Chloro-2-methoxyphenyl)-1,3-dihydro-3,5-difluoro-2H-indol-2-one] | + (+ = 100-125%)
5 | O=C1Nc2cc(C(F)(F)F)ccc2C1(O)c1cc(Cl)ccc1O (single isomer, unassigned; (-)) [Example 13, (-)-3-(5-Chloro-2-hydroxyphenyl)-1,3-dihydro-3-hydroxy-6-(trifluoromethyl)-2H-indol-2-one] | ++ (++ = 125-150%)
6 | O=C1Nc2c(C(F)(F)F)cccc2C1(O)c1cc(Cl)ccc1O (racemic) [Example 7, (±)-3-(5-Chloro-2-hydroxyphenyl)-1,3-dihydro-3-hydroxy-7-(trifluoromethyl)-2H-indol-2-one] | + (+ = 100-125%)
7 | O=C1Nc2cc(C(F)(F)F)ccc2C1c1cc(Cl)ccc1O (racemic) [Example 4, (±)-3-(5-Chloro-2-hydroxyphenyl)-1,3-dihydro-6-(trifluoromethyl)-2H-indol-2-one] | +++ (+++ = >150%)
8 | O=C1Nc2c(ccc3ccccc23)C1(O)c1cc(Cl)ccc1O (racemic) [Example 15, (±)-3-(5-Chloro-2-hydroxyphenyl)-1,3-dihydro-3-hydroxy-2H-benz[g]indol-2-one] | +++ (+++ = >150%)
9 | COc1ccc(Cl)cc1C1(O)C(=O)Nc2cc(C(F)(F)F)ccc21 (racemic) [Example 1, (±)-3-(5-Chloro-2-methoxyphenyl)-1,3-dihydro-3-hydroxy-6-(trifluoromethyl)-2H-indol-2-one] | + (+ = 100-125%)
10 | O=C1Nc2cc(Cl)cc(Cl)c2C1(O)c1cc(Cl)ccc1O (racemic) [Example 6, (±)-3-(5-Chloro-2-dhydroxyphenyl)-4,6-dichloro-1,3-dihydro-3-hydroxy-2-H-indol-2-one] | + (+ = 100-125%)
11 | O=C1Nc2cc(C(F)(F)F)ccc2C1(O)c1cc(Cl)ccc1O (racemic) [Example 3, (±)-3-(5-Chloro-2-hydroxyphenyl)-1,3-dihydro-3-hydroxy-6-(trifluoromethyl)-2H-indol-2-one] | ++ (++ = 125-150%)
12 | COc1ccc(Cl)cc1C1(F)C(=O)Nc2cc(C(F)(F)F)ccc21 (racemic) [Example 14, (±)-3-(5-Chloro-2-methoxyphenyl)-1,3-dihydro-3-fluoro-6-(trifluoromethyl)-2H-indol-2-one] | ++ (++ = 125-150%)
13 | O=C1Nc2cc(C(F)(F)F)ccc2C1(O)c1cc(C(F)(F)F)ccc1O (racemic) [Example 9, (±)-1,3-Dihydro-3-hydroxy-3-[2-hydroxy-5-(trifluoromethyl)phenyl]-6-(trifluoromethyl)-2H-indol-2-one] | ++ (++ = 125-150%)
14 | O=C1Nc2ccc3ccccc3c2C1c1cc(Cl)ccc1O (racemic) [Example 22, (±)-3-(5--Chloro-2-hydroxyphenyl)-1,3-dihydro-2H-benz[e]indol-2-one] | +++ (+++ = >150%)

These compounds were tested on cortical infarct volume after MCAO (assay: Permanent middle cerebral artery occlusion (MCAO) focal stroke model). Settings: intraparitoneally 10 mg/kg, single bolus 2 hours after MCAO; infarct measured 24 hours after MCAO; vs vehicle-treated control.
Type: in vivo, spontaneously hypertensive rat
Description: To determine the ability of these compounds to reduce cell loss resulting from neuronal ischemia, a standard rodent model of permanent focal ischemia, involving occlusion of the middle cerebral artery in the spontaneously hypertensive rat (MCAO model) was employed [Tamura, A., et al., Journal of Cerebral Blood Flow and Metabolism, Volume 1, 53-60, (1981)].
Selected compounds have been evaluated in the focal stroke model involving permanent middle cerebral artery occlusion (MCAO) in the spontaneously hypertensive rat. This procedure results in a reliably large neocortical infarct volume that is measured by means of vital dye exclusion in serial slices through the brain 24 hours after MCAO. In the present test, compounds were administered using an i.v. or […]. route of administration at two hours after occlusion.

Row | Compound | reduction of cortical infarct volume
15 | O=C1Nc2cc(C(F)(F)F)ccc2C1c1cc(Cl)ccc1O (racemic) [Example 4, (±)-3-(5-Chloro-2-hydroxyphenyl)-1,3-dihydro-6-(trifluoromethyl)-2H-indol-2-one] | about 26%

Same assay, conditions: intravenously 0.03 mg/kg, single bolus 2 hours after MCAO; infarct measured 24 hours after MCAO; vs vehicle-treated control

Row | Compound | reduction of cortical infarct volume
16 | O=C1Nc2cc(C(F)(F)F)ccc2C1c1cc(Cl)ccc1O (racemic) [Example 4, (±)-3-(5-Chloro-2-hydroxyphenyl)-1,3-dihydro-6-(trifluoromethyl)-2H-indol-2-one] | about 18%
